The target of experiment [1] is T1, Protease (Human immunodeficiency virus 1, UniProt Q9YQ12). Put plainly: Inhibition of wild type HIV1 protease by competitive binding.
Experiment [2] deals with T1, Protease. Briefly: Inhibition of wild type HIV1 protease by uncompetitive binding.

The Ki is the equilibrium dissociation constant of an inhibitor or competing ligand from its target. Read a low Ki as tighter binding. Turning to `CC(C)CN(C[C@@H](O)[C@H](Cc1ccccc1)NC(=O)O[C@H]1CCOC1)S(=O)(=O)c1ccc(N)cc1`, the Ki on Protease [1] worked out at 6.2 nM; at Protease [2], 28 nM.
